Here are results for three molecules from paper PMC5693757 (Journal of molecular biology, 2017).

What all share (assay type): binding
Experiment [1] deals with T1, ARL2 (Homo sapiens, UniProt P36404). Description: HDX-MS.
The target of experiment [2] is T1, ARL2. The experiment in a line: real-time mant fluorescence association/dissociation kinetics.
In experiment [3] the target is T1, ARL2. Description: radioligand nitrocellulose filter trapping.

T1 sequence (P36404 2-184): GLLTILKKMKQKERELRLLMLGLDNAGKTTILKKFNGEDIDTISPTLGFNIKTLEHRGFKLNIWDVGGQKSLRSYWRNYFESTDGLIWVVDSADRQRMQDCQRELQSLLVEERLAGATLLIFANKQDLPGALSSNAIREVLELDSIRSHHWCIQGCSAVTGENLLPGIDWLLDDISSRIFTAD

With `Nc1nc2c(ncn2[C@@H]2O[C@H](COP(=O)(O)OP(=O)(O)O)[C@@H](O)[C@H]2O)c(=O)[nH]1` [GDP], the HDX-MS result on ARL2 [1] is “addition of GDP to ARL2 (apo→GDP) resulted in large protection to deuterium uptake at the conserved nucleotide-binding motifs G1 and G4”.

Usually Kd stands for a measure of binding affinity in units of concentration. High values mean lower affinity, low ones higher affinity. mant-Gpp(NH)p showed a Kd at ARL2 [2] of 590 nM.

Consider `Nc1nc2c(ncn2[C@@H]2O[C@H](COP(=O)(O)OP(=O)(O)OP(O)(O)=S)[C@@H](O)[C@H]2O)c(=O)[nH]1` [GTPγS], for which the “radioligand nitrocellulose filter trapping; HDX-MS” value at ARL2 [3] was “Human ARL2 monomer, exogenously expressed and purified from E. coli or HEK cells, bound GTPγS to similar stoichiometries”.
